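These data come from cells grown in 96-well plates and exposed to compound for 48 hours at five concentrations. TGI marks complete inhibition of growth.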 A value given as a limit tells only on which side of the number the result lay.

The first assay concerns HOP-62 NSCLC. As to the kind of experiment: NCI tumour cell line growth inhibition, 48 h.
Regarding `O=C(O[C@H](/C=C/c1ccccc1)P1(=O)N(Cc2ccccc2)[C@@H]2CCCC[C@H]2N1Cc1ccccc1)c1ccccc1`, the TGI was above 100 µM.
With `CCOC(=O)C(=O)N1C(C)=C(C(=O)OCC)CC(C(=O)OCC)=C1C`, the TGI was above 100 µM.

The next assay deals with HOP-92 NSCLC. As to the kind of experiment: NCI tumour cell line growth inhibition, 48 h.
Take `CC(C)CCNC(=O)c1ccc(CNC(=O)/C=C/c2ccc(OCc3ccccc3)cc2)cc1`: the TGI is above 100 µM.
In the case of `N#Cc1c2c(c(Nc3ccc(F)cc3)n3c1nc1ccccc13)CCC2`, the TGI was 20.5 µM.
On the same count and under the same terms, the result for `O=C(O[C@H](/C=C/c1ccccc1)P1(=O)N(Cc2ccccc2)[C@@H]2CCCC[C@H]2N1Cc1ccccc1)c1ccccc1` reads 6.72 µM; that for `CCOC(=O)C(=O)N1C(C)=C(C(=O)OCC)CC(C(=O)OCC)=C1C`, above 100 µM.

For another assay, the system named is HS 578T breast. As to the kind of experiment: NCI tumour cell line growth inhibition, 48 h.
`O=C(O[C@H](/C=C/c1ccccc1)P1(=O)N(Cc2ccccc2)[C@@H]2CCCC[C@H]2N1Cc1ccccc1)c1ccccc1`: the TGI was above 100 µM.
Same read-out and setting: the value for `CCOC(=O)C(=O)N1C(C)=C(C(=O)OCC)CC(C(=O)OCC)=C1C` was above 100 µM.

The test system of the next assay is HT29 colon. The experiment in a line: NCI tumour cell line growth inhibition, 48 h.
Molecule `CC(C)CCNC(=O)c1ccc(CNC(=O)/C=C/c2ccc(OCc3ccccc3)cc2)cc1` yielded a TGI above 100 µM.
The same measure, in the same setting: the result for `N#Cc1c2c(c(Nc3ccc(F)cc3)n3c1nc1ccccc13)CCC2` reads 3.61 µM; that for `O=C(O[C@H](/C=C/c1ccccc1)P1(=O)N(Cc2ccccc2)[C@@H]2CCCC[C@H]2N1Cc1ccccc1)c1ccccc1`, 18.4 µM.

The test system of the next assay is IGROV1 ovarian. The experiment in a line: NCI tumour cell line growth inhibition, 48 h.
In turn, `N#Cc1c2c(c(Nc3ccc(F)cc3)n3c1nc1ccccc13)CCC2` came in with a TGI of 11.1 µM.
`O=C(O[C@H](/C=C/c1ccccc1)P1(=O)N(Cc2ccccc2)[C@@H]2CCCC[C@H]2N1Cc1ccccc1)c1ccccc1` came in with a TGI of 15.8 µM.
Still for that read-out and setting: the result for `CCOC(=O)C(=O)N1C(C)=C(C(=O)OCC)CC(C(=O)OCC)=C1C` reads above 100 µM.

Another assay deals with K-562 leukemia. As to the kind of experiment: NCI tumour cell line growth inhibition, 48 h.
As for `CC(C)CCNC(=O)c1ccc(CNC(=O)/C=C/c2ccc(OCc3ccccc3)cc2)cc1`, the TGI is above 100 µM.
The same measure, in the same setting: the result for `N#Cc1c2c(c(Nc3ccc(F)cc3)n3c1nc1ccccc13)CCC2` reads above 100 µM; that for `O=C(O[C@H](/C=C/c1ccccc1)P1(=O)N(Cc2ccccc2)[C@@H]2CCCC[C@H]2N1Cc1ccccc1)c1ccccc1`, above 100 µM; that for `CCOC(=O)C(=O)N1C(C)=C(C(=O)OCC)CC(C(=O)OCC)=C1C`, above 100 µM.

Another assay relates to KM12 colon. The experiment in a line: NCI tumour cell line growth inhibition, 48 h.
For the molecule `CC(C)CCNC(=O)c1ccc(CNC(=O)/C=C/c2ccc(OCc3ccccc3)cc2)cc1`, the TGI is above 100 µM.
`N#Cc1c2c(c(Nc3ccc(F)cc3)n3c1nc1ccccc13)CCC2` came in with a TGI of 23.7 µM.
Still for that read-out and setting: the value for `O=C(O[C@H](/C=C/c1ccccc1)P1(=O)N(Cc2ccccc2)[C@@H]2CCCC[C@H]2N1Cc1ccccc1)c1ccccc1` was 14.2 µM; that for `CCOC(=O)C(=O)N1C(C)=C(C(=O)OCC)CC(C(=O)OCC)=C1C` was above 100 µM.

For another assay, the system named is LOX IMVI melanoma. The experiment in a line: NCI tumour cell line growth inhibition, 48 h.
The molecule `CC(C)CCNC(=O)c1ccc(CNC(=O)/C=C/c2ccc(OCc3ccccc3)cc2)cc1` yielded a TGI above 100 µM.
As for `N#Cc1c2c(c(Nc3ccc(F)cc3)n3c1nc1ccccc13)CCC2`, the TGI came out at 5.37 µM.
As to `O=C(O[C@H](/C=C/c1ccccc1)P1(=O)N(Cc2ccccc2)[C@@H]2CCCC[C@H]2N1Cc1ccccc1)c1ccccc1`, the TGI stood at 11.8 µM.
`CCOC(=O)C(=O)N1C(C)=C(C(=O)OCC)CC(C(=O)OCC)=C1C`: the TGI was above 100 µM.

The next assay has as its system M14 melanoma. As to the kind of experiment: NCI tumour cell line growth inhibition, 48 h.
Molecule `CC(C)CCNC(=O)c1ccc(CNC(=O)/C=C/c2ccc(OCc3ccccc3)cc2)cc1` returned a TGI above 100 µM.
The molecule `N#Cc1c2c(c(Nc3ccc(F)cc3)n3c1nc1ccccc13)CCC2` came in with a TGI of 18.4 µM.
Same read-out and setting: the value for `O=C(O[C@H](/C=C/c1ccccc1)P1(=O)N(Cc2ccccc2)[C@@H]2CCCC[C@H]2N1Cc1ccccc1)c1ccccc1` was above 100 µM; that for `CCOC(=O)C(=O)N1C(C)=C(C(=O)OCC)CC(C(=O)OCC)=C1C` was above 100 µM.

The test system of the next assay is MALME-3M melanoma. The experiment in a line: NCI tumour cell line growth inhibition, 48 h.
As for `N#Cc1c2c(c(Nc3ccc(F)cc3)n3c1nc1ccccc13)CCC2`, the TGI was found to be 19.9 µM.
Same read-out and setting: the result for `O=C(O[C@H](/C=C/c1ccccc1)P1(=O)N(Cc2ccccc2)[C@@H]2CCCC[C@H]2N1Cc1ccccc1)c1ccccc1` reads 12 µM.
Turning to `CCOC(=O)C(=O)N1C(C)=C(C(=O)OCC)CC(C(=O)OCC)=C1C`, the TGI was above 100 µM.

The test system of another assay is MCF7 breast. As to the kind of experiment: NCI tumour cell line growth inhibition, 48 h.
Regarding `CC(C)CCNC(=O)c1ccc(CNC(=O)/C=C/c2ccc(OCc3ccccc3)cc2)cc1`, the TGI is above 100 µM.
`N#Cc1c2c(c(Nc3ccc(F)cc3)n3c1nc1ccccc13)CCC2` gave a TGI of 16 µM.
For `O=C(O[C@H](/C=C/c1ccccc1)P1(=O)N(Cc2ccccc2)[C@@H]2CCCC[C@H]2N1Cc1ccccc1)c1ccccc1`, the TGI was above 100 µM.
The molecule `CCOC(=O)C(=O)N1C(C)=C(C(=O)OCC)CC(C(=O)OCC)=C1C` gave a TGI above 100 µM.

Another assay has as its system MDA-MB-231 breast. As to the kind of experiment: NCI tumour cell line growth inhibition, 48 h.
In the case of `CC(C)CCNC(=O)c1ccc(CNC(=O)/C=C/c2ccc(OCc3ccccc3)cc2)cc1`, the TGI is above 100 µM.
The same measure, in the same setting: the value for `N#Cc1c2c(c(Nc3ccc(F)cc3)n3c1nc1ccccc13)CCC2` was 11.3 µM; that for `O=C(O[C@H](/C=C/c1ccccc1)P1(=O)N(Cc2ccccc2)[C@@H]2CCCC[C@H]2N1Cc1ccccc1)c1ccccc1` was 21 µM.
The molecule `CCOC(=O)C(=O)N1C(C)=C(C(=O)OCC)CC(C(=O)OCC)=C1C` displayed a TGI above 100 µM.

For another assay, the system named is MDA-MB-435. As to the kind of experiment: NCI tumour cell line growth inhibition, 48 h.
Molecule `CC(C)CCNC(=O)c1ccc(CNC(=O)/C=C/c2ccc(OCc3ccccc3)cc2)cc1` returned a TGI above 100 µM.
Still for that read-out and setting: the value for `N#Cc1c2c(c(Nc3ccc(F)cc3)n3c1nc1ccccc13)CCC2` was 11 µM; that for `O=C(O[C@H](/C=C/c1ccccc1)P1(=O)N(Cc2ccccc2)[C@@H]2CCCC[C@H]2N1Cc1ccccc1)c1ccccc1` was 96.3 µM; that for `CCOC(=O)C(=O)N1C(C)=C(C(=O)OCC)CC(C(=O)OCC)=C1C` was above 100 µM.

Another assay has as its system MDA-N. As to the kind of experiment: NCI tumour cell line growth inhibition, 48 h.
`CC(C)CCNC(=O)c1ccc(CNC(=O)/C=C/c2ccc(OCc3ccccc3)cc2)cc1` yielded a TGI above 100 µM.
Still for that read-out and setting: the value for `N#Cc1c2c(c(Nc3ccc(F)cc3)n3c1nc1ccccc13)CCC2` was 9.75 µM; that for `O=C(O[C@H](/C=C/c1ccccc1)P1(=O)N(Cc2ccccc2)[C@@H]2CCCC[C@H]2N1Cc1ccccc1)c1ccccc1` was above 100 µM.
Still for that read-out and setting: the value for `CCOC(=O)C(=O)N1C(C)=C(C(=O)OCC)CC(C(=O)OCC)=C1C` was above 100 µM.

A further assay concerns MOLT-4 leukemia. The experiment in a line: NCI tumour cell line growth inhibition, 48 h.
`CC(C)CCNC(=O)c1ccc(CNC(=O)/C=C/c2ccc(OCc3ccccc3)cc2)cc1` yielded a TGI above 100 µM.
Consider `N#Cc1c2c(c(Nc3ccc(F)cc3)n3c1nc1ccccc13)CCC2`, for which the TGI was above 100 µM.
The same measure, in the same setting: the result for `CCOC(=O)C(=O)N1C(C)=C(C(=O)OCC)CC(C(=O)OCC)=C1C` reads above 100 µM.

The next assay deals with NCI-H226 lung. The experiment in a line: NCI tumour cell line growth inhibition, 48 h.
Regarding `CC(C)CCNC(=O)c1ccc(CNC(=O)/C=C/c2ccc(OCc3ccccc3)cc2)cc1`, the TGI is above 100 µM.
With `N#Cc1c2c(c(Nc3ccc(F)cc3)n3c1nc1ccccc13)CCC2`, the TGI worked out at 22.7 µM.
